In test [1] the target is GABAA-R (rat brain cortical membranes). The experiment in a line: Steroid inhibition of [35S]-TBPS binding (radioligand displacement). As to conditions: in the presence of 5 μM GABA. The protocol:
Steroid Inhibition of TBPS Binding
[35S]-t-Butylbicyclophosphorothionate (TBPS) binding assays using rat brain cortical membranes in the presence of 5 μM GABA has been described (Gee et al, J. Pharmacol. Exp. Ther. 1987, 241, 346-353; Hawkinson et al, Mol. Pharmacol. 1994, 46, 977-985; Lewin, A. H et al., Mol. Pharmacol. 1989, 35, 189-194).
Briefly, cortices are rapidly removed following decapitation of carbon dioxide-anesthetized Sprague-Dawley rats (200-250 g). The cortices are homogenized in 10 volumes of ice-cold 0.32 M sucrose using a glass/teflon homogenizer and centrifuged at 1500×g for 10 min at 4° C. The resultant supernatants are centrifuged at 10,000×g for 20 min at 4° C. to obtain the P2 pellets. The P2 pellets are resuspended in 200 mM NaCl/50 mM Na-K phosphate pH 7.4 buffer and centrifuged at 10,000×g for 10 min at 4° C. This washing procedure is repeated twice and the pellets are resuspended in 10 volumes of buffer. Aliquots (100 μL) of the membrane suspensions are incubated with 3 nM [^35S]-TBPS and 5 μL aliquots of test drug dissolved in dimethyl sulfoxide (DMSO) (final 0.5%) in the presence of 5 μM GABA. The incubation is brought to a final volume of 1.0 mL with buffer. […] Following a 90 min incubation at room temp, the assays are terminated by filtration through glass fiber filters (Schleicher and Schuell No. 32) using a cell harvester (Brandel) and rinsed three times with ice-cold buffer. Filter bound radioactivity is measured by liquid scintillation spectrometry. Non-linear curve fitting of the overall data for each drug averaged for each concentration is done using Prism (GraphPad). […] The concentration of test compound producing 50% inhibition (IC50) of specific binding and the maximal extent of inhibition (Imax) are determined for the individual experiments with the same model used for the overall data and then the means ±SEM.s of the individual experiments are calculated.
Various compounds are or can be screened to determine their potential as modulators of [^35S]-TBPS binding in vitro. These assays are or can be performed in accordance with the above discussed procedures.
Background: Loss of bound radioactivity is the signal in a displacement assay; it reports binding, not function.

The target of test [2] is T1, GABAA receptor α1β2γ2 (Homo sapiens, UniProt P14867+P47870).
T1 construct: expressed in transfected cells; host or cells: LTK cells (stably transfected)
T1 sequence (P14867 28-456): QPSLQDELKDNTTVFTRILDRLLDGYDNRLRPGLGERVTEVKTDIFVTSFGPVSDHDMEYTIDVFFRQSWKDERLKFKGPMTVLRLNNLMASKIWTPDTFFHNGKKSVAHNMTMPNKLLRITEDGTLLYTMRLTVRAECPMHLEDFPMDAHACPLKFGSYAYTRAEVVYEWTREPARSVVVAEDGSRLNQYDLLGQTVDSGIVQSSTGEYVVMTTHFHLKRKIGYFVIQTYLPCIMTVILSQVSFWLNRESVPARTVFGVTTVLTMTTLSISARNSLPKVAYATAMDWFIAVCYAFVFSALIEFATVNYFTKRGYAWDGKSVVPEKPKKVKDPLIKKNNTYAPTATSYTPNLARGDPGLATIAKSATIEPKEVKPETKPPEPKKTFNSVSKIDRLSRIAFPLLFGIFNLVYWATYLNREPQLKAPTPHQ
T1 sequence (P47870 25-512 limits assumed): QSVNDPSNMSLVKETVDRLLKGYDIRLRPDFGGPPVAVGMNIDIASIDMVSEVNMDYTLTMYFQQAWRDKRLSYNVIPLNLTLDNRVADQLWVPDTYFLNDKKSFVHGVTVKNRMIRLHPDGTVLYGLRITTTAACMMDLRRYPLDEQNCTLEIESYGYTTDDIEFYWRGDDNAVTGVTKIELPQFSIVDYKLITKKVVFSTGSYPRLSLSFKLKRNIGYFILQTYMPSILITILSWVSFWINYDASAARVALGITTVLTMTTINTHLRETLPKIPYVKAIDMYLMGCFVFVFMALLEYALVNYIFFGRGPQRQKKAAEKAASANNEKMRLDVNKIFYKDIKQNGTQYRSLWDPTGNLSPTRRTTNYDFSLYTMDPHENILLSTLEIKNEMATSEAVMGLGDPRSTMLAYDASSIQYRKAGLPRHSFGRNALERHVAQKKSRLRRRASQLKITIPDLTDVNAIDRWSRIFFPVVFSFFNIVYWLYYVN
T1 sequence (P18507 40-475 partner): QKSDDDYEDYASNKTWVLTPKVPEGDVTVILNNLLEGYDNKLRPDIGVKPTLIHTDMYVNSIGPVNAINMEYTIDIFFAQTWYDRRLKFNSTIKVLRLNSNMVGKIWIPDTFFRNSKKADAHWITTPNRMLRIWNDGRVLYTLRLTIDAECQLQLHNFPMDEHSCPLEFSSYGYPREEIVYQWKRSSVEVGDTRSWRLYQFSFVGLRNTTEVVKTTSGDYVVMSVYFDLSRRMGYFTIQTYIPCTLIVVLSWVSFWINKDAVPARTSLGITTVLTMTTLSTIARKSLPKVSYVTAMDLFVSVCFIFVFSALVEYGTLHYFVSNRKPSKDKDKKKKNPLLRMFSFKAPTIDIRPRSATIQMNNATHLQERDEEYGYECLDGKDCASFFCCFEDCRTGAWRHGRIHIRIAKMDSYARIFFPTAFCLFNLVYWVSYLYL
Kind of test: Patch clamp electrophysiology, Qpatch in Ltk cells. Type of test: cell-based. As to conditions: 10 μM test article, potentiation of GABA EC20 (2 μM) current, read-out: GABA (α1β2γ2) Qpatch in Ltk, % efficacy at 10 μM. As for the experimental part: (§1) Patch Clamp Electrophysiology of Recombinant α1β2γ2 and α4β3δ GABAA Receptors
(§2) Cellular electrophysiology is used to measure the pharmacological properties of our GABAA receptor modulators in heterologous cell systems. Each compound is tested for its ability to affect GABA mediated currents at a submaximal agonist dose (GABA EC20=2 μM). LTK cells are stably transfected with the α1β2γ2 subunits of the GABA receptor and CHO cells are transiently transfected with the α4β3δ subunits via the Lipofecatamine method. Cells were passaged at a confluence of about 50-80% and then seeded onto 35 mm sterile culture dishes containing 2 ml culture complete medium without antibiotics or antimycotics. Confluent clusters of cells are electrically coupled (Pritchett et al, Science, 1988, 242, 1306-1308.). Because responses in distant cells are not adequately voltage clamped and because of uncertainties about the extent of coupling (Verdoorn et al., Neuron 1990, 4, 919-928.), cells were cultivated at a density that enables the recording of single cells (without visible connections to other cells).
Whole cell currents were measured with HEKA EPC-10 amplifiers using PatchMaster software or by using the high throughput QPatch platform (Sophion). Bath solution for all experiments contained (in mM): NaCl 137 mM, KCl 4 mM, CaCl2 1.8 mM, MgCl2 1 mM, HEPES 10 mM, D-Glucose 10 mM, pH (NaOH) 7.4.. In some cases 0.005% cremophor was also added. Intracellular (pipette) solution contained: KCl 130 mM, MgCl2 1 mM, Mg-ATP 5 mM, HEPES 10 mM, EGTA 5 mM, pH 7.2. During experiments, cells and solutions were maintained at room temperature (19° C.-30° C.). For manual patch clamp recordings, cell culture dishes were placed on the dish holder of the microscope and continuously perfused (1 ml/min) with bath solution. After formation of a Gigaohm seal between the patch electrodes and the cell (pipette resistance range: 2.5 MΩ-6.0 MΩ; seal resistance range:>1 GΩ) the cell membrane across the pipette tip was ruptured to assure electrical access to the cell interior (whole-cell patch-configuration). For experiments using the QPatch system, cells were transferred as suspension to the QPatch system in the bath solution and automated whole cell recordings were performed.
Cells were voltage clamped at a holding potential of −80 mV. For the analysis of test articles, GABA receptors were stimulated by 2 μM GABA after sequential pre-incubation of increasing concentrations of the test article. Pre-incubation duration was 30 s and the duration of the GABA stimulus was 2 s. Test articles were dissolved in DMSO to form stock solutions (10 mM). Test articles were diluted to 0.01, 0.1, 1, and 10 μM in bath solution. All concentrations of test articles were tested on each cell. The relative percentage potentiation was defined as the peak amplitude in response to GABA EC20 in the presence of the test article divided by the peak amplitude in response to GABA EC20 alone, multiplied by 100.

Test [3] deals with T2, GABAA receptor α4β3δ (Homo sapiens, UniProt P28472+P48169).
T2 construct: expressed in transfected cells; host or cells: CHO cells (transiently transfected, Lipofectamine)
T2 sequence (P48169 36-554): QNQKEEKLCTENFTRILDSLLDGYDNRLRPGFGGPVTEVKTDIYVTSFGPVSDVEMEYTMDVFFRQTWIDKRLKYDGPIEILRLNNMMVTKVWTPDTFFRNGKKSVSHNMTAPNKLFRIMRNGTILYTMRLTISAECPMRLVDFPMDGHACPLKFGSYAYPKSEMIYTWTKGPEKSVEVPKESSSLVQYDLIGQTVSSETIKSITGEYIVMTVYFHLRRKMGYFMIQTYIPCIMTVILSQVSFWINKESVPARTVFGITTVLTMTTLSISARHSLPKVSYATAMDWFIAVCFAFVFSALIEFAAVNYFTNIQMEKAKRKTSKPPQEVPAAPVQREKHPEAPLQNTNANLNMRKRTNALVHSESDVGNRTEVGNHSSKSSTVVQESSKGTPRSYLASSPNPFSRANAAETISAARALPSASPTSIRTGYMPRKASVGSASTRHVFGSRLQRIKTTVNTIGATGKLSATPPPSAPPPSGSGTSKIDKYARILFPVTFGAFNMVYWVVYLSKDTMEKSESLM
T2 sequence (P28472 26-473): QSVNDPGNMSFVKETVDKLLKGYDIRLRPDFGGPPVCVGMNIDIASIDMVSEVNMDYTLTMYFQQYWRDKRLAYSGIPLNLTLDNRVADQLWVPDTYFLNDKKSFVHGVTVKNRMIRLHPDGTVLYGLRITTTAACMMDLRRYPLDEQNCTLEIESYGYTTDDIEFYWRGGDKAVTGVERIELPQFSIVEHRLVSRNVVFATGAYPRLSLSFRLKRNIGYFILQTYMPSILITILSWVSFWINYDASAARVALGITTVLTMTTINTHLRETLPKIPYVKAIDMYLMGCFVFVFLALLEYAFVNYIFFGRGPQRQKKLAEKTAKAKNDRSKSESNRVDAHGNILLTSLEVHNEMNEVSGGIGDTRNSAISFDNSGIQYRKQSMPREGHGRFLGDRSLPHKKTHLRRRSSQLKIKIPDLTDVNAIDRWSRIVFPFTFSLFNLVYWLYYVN
T2 sequence (O14764 25-452 partner): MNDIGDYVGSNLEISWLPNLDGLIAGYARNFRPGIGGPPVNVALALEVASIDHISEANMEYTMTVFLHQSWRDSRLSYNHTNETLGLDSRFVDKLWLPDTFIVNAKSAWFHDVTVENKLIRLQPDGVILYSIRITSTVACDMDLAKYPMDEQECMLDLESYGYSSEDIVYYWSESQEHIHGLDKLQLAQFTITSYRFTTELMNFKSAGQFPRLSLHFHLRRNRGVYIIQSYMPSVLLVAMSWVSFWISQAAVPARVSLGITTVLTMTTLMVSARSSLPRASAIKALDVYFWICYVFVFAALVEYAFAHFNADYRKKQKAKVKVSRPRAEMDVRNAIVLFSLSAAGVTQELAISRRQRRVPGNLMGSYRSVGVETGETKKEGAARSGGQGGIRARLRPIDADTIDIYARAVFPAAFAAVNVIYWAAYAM
Kind of test: Patch clamp electrophysiology, manual patch in CHO cells. To be noted: 10 μM test article, potentiation of GABA EC20 (2 μM) current, read-out: GABA (α4β3δ) Manual patch in CHO, % efficacy at 10 μM. The test is classed as cell-based. The protocol:
as §1, §2
Whole cell currents were measured with HEKA EPC-10 amplifiers using PatchMaster software or by using the high throughput QPatch platform (Sophion). Bath solution for all experiments contained (in mM): NaCl 137 mM, KCl 4 mM, CaCl2 1.8 mM, MgCl2 1 mM, HEPES 10 mM, D-Glucose 10 mM, pH (NaOH) 7.4.. […]

From patent US10391106B2, “19-nor C3, 3-disubstituted C21-C-bound heteroaryl steroids and methods of use thereof” (Sage Therapeutics, Inc., priority 2013, dated 2019) come the findings set out here.

Broadly, the IC50 is the concentration at which inhibition is half-maximal.

On to `Cc1nc(CC(=O)[C@H]2CC[C@H]3[C@@H]4CC[C@@H]5C[C@](C)(O)CC[C@@H]5[C@H]4CC[C@]23C)oc1C` [SA-1], for which the IC50 in test [1] was < 50 nM. For the same compound, the Emax at 10 µM in test [2] is > 500%; in test [3] it was 10 to 100%. As to `C[C@@]1(O)CC[C@H]2[C@H](CC[C@@H]3[C@@H]2CC[C@]2(C)[C@@H](C(=O)Cc4ccccn4)CC[C@@H]32)C1` [SA-2], the IC50 in test [1] is < 50 nM. The Emax at 10 µM in test [2] and in test [3] was 100 to 500% each time.

As for `Cn1ccnc1CC(=O)[C@H]1CC[C@H]2[C@@H]3CC[C@@H]4C[C@](C)(O)CC[C@@H]4[C@H]3CC[C@]12C` [SA-3], the IC50 in test [1] was in the range of 100 to 500 nM. In addition, in test [2], the Emax at 10 µM was 100 to 500%. As to `Cc1cccc(CC(=O)[C@H]2CC[C@H]3[C@@H]4CC[C@@H]5C[C@](C)(O)CC[C@@H]5[C@H]4CC[C@]23C)n1` [SA-4], the IC50 in test [1] is < 50 nM. Moreover, the Emax at 10 µM in test [2] lay within 100 to 500%.

For `C[C@@]1(O)CC[C@H]2[C@H](CC[C@@H]3[C@@H]2CC[C@]2(C)[C@@H](C(=O)Cc4ccccc4)CC[C@@H]32)C1` [SA-5], in test [1], the IC50 is < 50 nM. As for `C[C@@]1(O)CC[C@H]2[C@H](CC[C@@H]3[C@@H]2CC[C@]2(C)[C@@H](C(=O)Cc4nccs4)CC[C@@H]32)C1` [SA-7], the IC50 in test [1] is < 50 nM. Also, in test [2], the Emax at 10 µM was > 500%. `Cc1nc(CC(=O)[C@H]2CC[C@H]3[C@@H]4CC[C@@H]5C[C@](C)(O)CC[C@@H]5[C@H]4CC[C@]23C)sc1C` [SA-8]: the IC50 in test [1] was in the range of 50 to 100 nM.

For the compound `C[C@@]1(O)CC[C@H]2[C@H](CC[C@@H]3[C@@H]2CC[C@]2(C)[C@@H](C(=O)Cc4cnccn4)CC[C@@H]32)C1` [SA-9], the Emax at 10 µM in test [2] lay in the range of 100 to 500%. As to `C[C@@]1(O)CC[C@H]2[C@H](CC[C@@H]3[C@@H]2CC[C@]2(C)[C@@H](C(=O)Cc4cccnc4)CC[C@@H]32)C1` [SA-10], the IC50 in test [1] was < 50 nM.
